# Assay results taken from PMC3025356, “Mechanism of the Ca^2+-Dependent Interaction between S100A4 and Tail Fragments of Nonmuscle Myosin Heavy Chain IIA” (Journal of Molecular Biology, 2011).
# Like-named read-outs stand apart in the source and are kept apart here.
# How the values were obtained:
# S100A4 [1] = target: T1, S100A4 (Homo sapiens, UniProt P26447); test: Fluorescence anisotropy titration, F-M16^N binding to S100A4
# T1 construct: We used full-length S100A4 for this analysis; made in house; host or cells: Escherichia coli BL21(DE3)
# T1 sequence (P26447 whole entry): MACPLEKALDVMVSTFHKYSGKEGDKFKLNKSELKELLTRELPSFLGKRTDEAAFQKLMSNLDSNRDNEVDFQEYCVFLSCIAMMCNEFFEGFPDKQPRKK
# Description: Titration (circles) was carried out in 20 mM NaCl, 10 mM Hepes, 1 mM Mg^2+, and 100 μM Ca^2+ at pH 7.5 and 20 °C. […] (squares).
# Fluorescence spectra and anisotropy measurements were recorded using an SLM 8000 spectrofluorimeter (SLM, Urbana, IL). Fluorescein anisotropy measurements were carried out in L-format using a 515-nm emission filter. The four combinations of vertical and horizontal polarisers (vv, vh, hh, and hv) were each recorded for 30 s, and then the initial setting (vv) was re-read to check for signal stability. Calculations of the total fluorescence (Ivv + 2Ivh) and anisotropy (Ivv − Ivh/(Ivv + 2Ivh)), corrected for the g factor (hh/hv), were performed using an Excel spreadsheet. […] Note that the small correction for the emission intensity weighting to the observed anisotropy was not applied to these competitive titrations as the error will tend to cancel.
# S100A4 [2] = target: T1, S100A4; test: Stopped-flow fluorescein fluorescence, kinetics of myosin peptide binding to S100A4; conditions: for dissociation rate constants, F-M16N vs M32: modelled
# Description: (§1) Stopped-flow measurements were carried out using an SX18-MV apparatus (Applied Photophysics Ltd., Leatherhead, UK) with a dead time of 1.5 ms.[40] Records were generally captured on a logarithmic time base. Absorption (turbidity) measurements were usually recorded using a 10-mm pathlength, while fluorescence was recorded with a 2-mm pathlength for excitation and emission. The stated concentrations of components refer to the reaction chamber after mixing, unless otherwise indicated. Tyrosine fluorescence was excited at 280 nm, and the emission was collected through a UG11 bandpass filter plus a 305-nm longpass filter.[18] Fluorescein fluorescence was excited at 480 nm, and the emission was detected through a 515-nm longpass filter. Quin-2 fluorescence was measured by excitation at 336 nm, and emission was collected with a 455-nm longpass filter. For simultaneous recording of light scatter, a second channel was monitored through a UG11 filter. Rate constants were obtained by fitting to single-exponential or double-exponential functions using Kaleidagraph (Synergy Software) or Applied Photophysics Pro-Data software. Modeling of kinetic schemes was performed using Berkeley Madonna software.
# The value of K5 (scheme 2) was estimated from two independent experiments. From the competition
# (§2) A second estimate was calculated from the apparent Ca2+ binding constant observed in the turbidity assay […]
# Fig. S2. (a) Displacement of 0.1
# monitored by fluorescein emission intensity. […] (b)
# Ca2+ was mixed with 1 mM EGTA. […] Note in these
# stopped-flow measurements of fluorescein intensity, no polarising optics were present at the magic angle
# S100A4 [3] = target: T1, S100A4; test: Summary of rate and equilibrium constants defined according to Scheme 1; format: binding; conditions: for k− 3: Ca^2+ dissociation from peptide–S100A4–Ca^2+; for k2: peptide association to S100A4–Ca^2+; for k− 2: peptide dissociation from S100A4–Ca^2+
# Excerpt: The interaction of myosin tail fragments (M) with S100A4 depends on [Ca^2+], with little detectable binding in the absence of Ca^2+.[2,7,17] Scheme 1 presents a minimal pathway describing the thermodynamics and kinetics of this interaction, where arrow lengths indicate the approximate position of the equilibria involved.
# [formula] Scheme 1 Ca2+ and myosin peptide (M) binding to S100A4.
# The binding of Ca^2+ and a target peptide to S100A4, as shown in Scheme 1, is thermodynamically coupled so that K1K2 = K0K3. For simplicity, we assume a 1:1 stoichiometry and independent binding sites, which are unlikely to be true at least for the longer fragments. However, the trends in binding remain valid for more complex cases. Binding of target peptides to S100A4 in the absence of Ca^2+ is weak (K0 > 100 μM), while binding of target peptides to S100A4 in the presence of Ca^2+ (K2) is around a micromolar or less for longer fragments. Knowing that Ca^2+ binding to S100A4 has K1 = 2–5 μM (from the ITC data above and the literature[14,17,18]) requires that Ca^2+ binding to the M–S100A4 complex be very tight (K3 < 0.15 μM and even lower for M200). The latter cannot be easily determined directly as it requires protein concentrations greater than K0 (i.e., >>100 μM) so that the proteins remain bound together throughout the titration with Ca^2+. However, K3 is readily determined by calculation because values or limits for K0, K1, and K2 are available (Table 2). This aspect is addressed further below for M200, which has the complication of forming filaments at the ionic strength used.
# S100A4 [4] = target: T1, S100A4; test: Quin-2 fluorescence, Ca^2+ dissociation from S100A4 in the presence of target peptides; format: binding
# Description: Ca^2+ dissociation measurements for wild-type S100A4, using Quin-2 as described above, were repeated as a control for the effect of target peptides on this process. On mixing 10 μM S100A4 in the presence of Ca^2+ with 100 μM Quin-2, the observed profile was fitted to a single exponential with kobs = 17 s^− 1 (Fig. 5a; cf. k− 1 in Scheme 1).
# Fig. 5 Dissociation of Ca^2+ from S100A4 in the absence and in the presence of target peptides monitored using Quin-2 fluorescence. (a) Mixed with 100 μM Quin-2 was 10 μM S100A4 + 50 μM Ca^2+ (stopped-flow reaction chamber concentrations). A superposed fit to a single exponential yields kobs = 17 s^− 1. […] (d) As in (a), but with 2.5 μM M200 premixed with 5 μM S100A4. A biphasic exponential fit yielded rate constants of 13 s^− 1 (A = 26%) and 0.30 s^− 1 (A = 74%). […] Experiments were carried out in either 20 mM NaCl, 20 mM Tris, 1 mM DTT, and 100 μM Ca^2+ at pH 7.5 and 20 °C (a and b; cf. Malashkevich et al.[17]), or 100 mM NaCl, 10 mM Hepes, and 100 μM Ca^2+ at pH 7.5 and 20 °C (c and d). […] Rate constants were unaffected by the inclusion of 1 mM Mg^2+.
# as §1, with “Rate constants were obtained by fitting to single-exponential or double-exponential functions using Kaleidagraph (Synergy Software) or Applied Photophysics Pro-Data software. Modeling of kinetic schemes was performed using Berkeley Madonna software.” left out
# S100A4 [5] = target: T1, S100A4; test: Competition of M32/M16^N with M200 for S100A4 (turbidity); format: biochemical; conditions: 250 μM peptide, 5 μM M200, 10 μM S100A4, Ca^2+
# Description: Fig. 9 Dissociation of M200 filaments by S100A4. (a) Initially, M200 was added (i) from a concentrated stock in 0.5 M NaCl to give a final concentration of 5 μM M200 (with respect to the polypeptide chain) in 100 mM NaCl, 10 mM Hepes, and 0.1 mM Ca^2+ at pH 7.5 and 20 °C. A biphasic rise in turbidity was recorded for 200 s (continuous line). Then 10 μM S100A4 (with respect to monomer concentration) was added (ii), followed by 0.2 mM EGTA (iii) and 1 mM Ca^2+ (iv). […] (b) M200 was diluted (i) into 100 mM NaCl to form filaments as in (a), then 5 μM S100A4 was added (ii), causing a 54% drop in turbidity. A further 5 μM S100A4 (iii) caused turbidity to fall to almost zero. (c) Stopped-flow records monitoring the dissociation of 5 μM M200 filaments on jumping [NaCl] from 100 mM to 120 mM NaCl. Other components of the buffer were 20 mM Hepes, 1 mM Mg^2+, and 100 μM Ca^2+ at pH 7.5 and 20 °C. […] In the presence of 20 μM S100A4 (lower trace), the turbidity decreased by 87% with a rate constant of 0.2 s^− 1.
# Further information on Scheme 2 was obtained from competition assays. […] An independent estimate of K5 based on the Ca^2+ dependence of the turbidity assay yielded a value of 0.003 μM (see Supplementary Data).
# The decrease in fluorescence, […]
# that F-M16N binding was slightly faster. […]
# as §2
# S100A4 [6] = target: T1, S100A4; conditions: cited from earlier work
# Excerpt: The site between helix III and helix IV of S100A4, exposed in the presence of Ca^2+, could accommodate an α-helical target of about 16 residues. The longer M32 mini ...
compound,measurement,setting,value
CSCC[C@H](NC(=O)[C@H](C)NC(=O)[C@H](CC(=O)O)NC(=O)CCCCCNC(=S)Nc1ccc2c(c1)C(=O)OC21c2ccc(O)cc2Oc2cc(O)ccc21)C(=O)N[C@@H](CC(N)=O)C(=O)N[C@@H](CCCNC(=N)N)C(=O)N[C@@H](CCC(=O)O)C(=O)N[C@H](C(=O)N[C@@H](CO)C(=O)N[C@@H](CO)C(=O)N[C@@H](CC(C)C)C(=O)N[C@@H](CCCCN)C(=O)N[C@@H](CC(N)=O)C(=O)N[C@@H](CCCCN)C(=O)N[C@@H](CC(C)C)C(=O)N[C@@H](CCCNC(=N)N)C(=O)N[C@@H](CCCNC(=N)N)C(N)=O)C(C)C [F-M16^N],quench of total fluorescein fluorescence on binding,S100A4 [1],~35%
same,displacement rate constant by excess M32,"S100A4 [2]; 0.1 μM F-M16^N, 5 μM S100A4, 60 μM M32, Ca^2+",7.7 s^− 1
same,"kobs on mixing with EGTA (Ca^2+ dissociation from complex, k− 3)","S100A4 [2]; 0.1 μM F-M16^N, 10 μM S100A4, 50 μM Ca^2+, 1 mM EGTA",9.4 s^− 1
same,kobs of binding,"S100A4 [2]; 0.1 μM F-M16^N, 25 μM S100A4",138 s^− 1
same,calculated kobs via k− 2 and k− 1 route,S100A4 [2]; 10 μM S100A4,1.8 s^− 1
same,maximum kobs,S100A4 [2]; above 25 μM S100A4,150 s^− 1
same,association rate constant k2 relative to M32,"S100A4 [2]; competition with equimolar M32, modelled",about twice as large as that of M32
same,fluorescence quench overshoot,S100A4 [2]; equimolar F-M16N and M32 mixed with equimolar S100A4,12%
same,amplitude of fluorescence decrease with competitor,"S100A4 [2]; equimolar F-M16N and M32 with equimolar S100A4, relative to absence of M32",about half the amplitude observed in the absence of M32
same,"dissociation rate constants, F-M16N vs M32",S100A4 [2],similar
same,kon,S100A4 [2]; read-out: association rate constant kon (k2),4.9e+06 M⁻¹ s⁻¹
same,koff,S100A4 [2]; read-out: dissociation rate constant koff (k− 2),6.2 s⁻¹
same,"k3, Ca^2+ binding to preformed peptide–S100A4 complex",S100A4 [2]; thermodynamic balance of Scheme 1,> 5 × 10^8 M^− 1 s^− 1
same,k1,"S100A4 [3]; Ca^2+ association to free S100A4, common to all targets",3.2 μM^− 1 s^− 1
same,k3,S100A4 [3]; Ca^2+ association to peptide–S100A4,> 500 μM^− 1 s^− 1
same,k− 1,"S100A4 [3]; Ca^2+ dissociation from free S100A4, common to all targets",16 s^− 1
same,k− 3,S100A4 [3],9.4 s^− 1
same,k2,S100A4 [3],4.9 μM^− 1 s^− 1
same,k− 2,S100A4 [3],6.2 s^− 1
CSCC[C@H](NC(=O)[C@H](C)NC(=O)[C@H](CC(=O)O)NC(=O)[C@H](C)NC(C)=O)C(=O)N[C@@H](CC(N)=O)C(=O)N[C@@H](CCCNC(=N)N)C(=O)N[C@@H](CCC(=O)O)C(=O)N[C@H](C(=O)N[C@@H](CO)C(=O)N[C@@H](CO)C(=O)N[C@@H](CC(C)C)C(=O)N[C@@H](CCCCN)C(=O)N[C@@H](CC(N)=O)C(=O)N[C@@H](CCCCN)C(=O)N[C@@H](CC(C)C)C(=O)N[C@@H](CCCNC(=N)N)C(=O)N[C@@H](CCCNC(=N)N)C(=O)NCC(=O)N[C@@H](CC(=O)O)C(=O)N[C@@H](CC(C)C)C(=O)N1CCC[C@H]1C(=O)N[C@@H](Cc1ccccc1)C(=O)N[C@H](C(=O)N[C@H](C(=O)N1CCC[C@H]1C(=O)N[C@@H](CCCNC(=N)N)C(=O)N[C@@H](CCCNC(=N)N)C(=O)N[C@@H](CCSC)C(=O)N[C@@H](C)C(=O)N[C@@H](CCCNC(=N)N)C(=O)N[C@@H](CCCCN)C(=O)NCC(N)=O)C(C)C)C(C)C)C(C)C [M32],"kobs, Ca^2+ dissociation with peptide","S100A4 [4]; 50 μM peptide premixed with 10 μM S100A4, 100 mM NaCl, 10 mM Hepes, 100 μM Ca^2+, pH 7.5, 20 °C",3.3 s^− 1
same,stoichiometry (discussion),S100A4 [4]; S100A4 concentration from absorbance at 280 nm,one mol of M32 peptide binds to two S100A4 monomers
same,"dissociation rate constants, F-M16N vs M32",S100A4 [2],similar
same,Kd,"S100A4 [3]; Ca^2+ binding to peptide–S100A4, limit from K3 = K1K2/K0, read-out: K3",< 0.15 µM
same,k− 3,S100A4 [3],3.2 s^− 1
same,k2,S100A4 [3],∼ 2 μM^− 1 s^− 1
same,Kd,"S100A4 [3]; peptide binding to S100A4 without Ca^2+, read-out: K0",> 100 µM
same,k− 2,S100A4 [3],∼ 6 s^− 1
same,inhibition of turbidity change amplitude,S100A4 [5],50%
R1893-R1923 myosin fragment: R1893-R1923 myosin fragment of Malashkevich et al.,stoichiometry,S100A4 [6],~0.5 mol of peptide per mole of S100A4 (dimer)
